≈ marks a conversion by molar mass, not a printed value. Where “and” joins values, the source holds several entries; their conditions need not be identical. Equal values may be shown once. Read-outs that look alike come from different tables or passages of the source. One block for each compound: values may come before it.
What was measured:
[1] = Particle size distribution of spray dried granisetron fine powder by Malvern Mastersizer; settings: typical particle size distribution
[2] = Solubility of granisetron in pMDI medium; assay type: physicochemical
Method: The solubility of granisetron was measured in a pMDI medium of HFA 134 as well as a mixture of HFA 134 and ethanol.

[3] = Particle size distribution of jet milled granisetron fine powder by Malvern Spraytec

Cumulative % on <9 μm [1]: 98.0%
D10 [1]: 1.01 μm
D50 [1]: 2.33 μm
D90 [1]: 5.34 μm
Structure (SMILES): CN1C2CCCC1CC(NC(=O)c1nn(C)c3ccccc13)C2 (stereo not shown) [Spray Dried Granisetron Fine Powder, granisetron]

Solubility, single determinations ([2]; HFA 134a with Ethanol (9:1), ~24 Hours): 84.173 µg/mL and 81.496 µg/mL
Solubility ([2]; HFA 134a, 24 hours, converted with gravity 1.21 g/mL): 0.00018 % w/w
Solubility ([2]; HFA 134a, 10 days, converted with gravity 1.21 g/mL): 0.00108 % w/w
Solubility ([2]; HFA 134 and ethanol, 24 hours): 0.00706 % w/w
Solubility ([2]; HFA 134 and ethanol, 10 days): 0.00681 % w/w
solubility at 10 days ([2]; pMDI medium (HFA 134a propellant), organic solvent or mixture, HFA 134a, 10 days, read-out: Solubility, Average (RSD)): 13.1 µg/mL (≈ 42 µM)
solubility at 10 days ([2]; pMDI medium (HFA 134a propellant), organic solvent or mixture, HFA 134a, 10 days, read-out: Solubility, single determinations): 13.2 µg/mL (≈ 42.1 µM)
Solubility ([2]; pMDI medium (HFA 134a propellant), organic solvent or mixture, HFA 134a, ~24 Hours, read-out: Solubility, Average (RSD)): 2.17 µg/mL (≈ 6.95 µM)
solubility at 10 days ([2]; pMDI medium (HFA 134a with ethanol), organic solvent or mixture, HFA 134a with Ethanol (9:1), 10 days, read-out: Solubility, Average (RSD)): 82.4 µg/mL (≈ 264 µM)
solubility at 10 days ([2]; pMDI medium (HFA 134a with ethanol), organic solvent or mixture, HFA 134a with Ethanol (9:1), 10 days, read-out: Solubility, single determinations): 79.9 µg/mL (≈ 256 µM)
Solubility ([2]; pMDI medium (HFA 134a with ethanol), organic solvent or mixture, HFA 134a with Ethanol (9:1), ~24 Hours, read-out: Solubility, Average (RSD)): 85.5 µg/mL (≈ 274 µM)
Solubility ([2]; pMDI medium (HFA 134a with ethanol), organic solvent or mixture, HFA 134a with Ethanol (9:1), ~24 Hours, read-out: Solubility, single determinations): 90.8 µg/mL (≈ 291 µM)
Structure (SMILES): CN1C2CCCC1CC(NC(=O)c1nn(C)c3ccccc13)C2 (stereo not shown) [granisetron]
Solubility, single determinations ([2]; HFA 134a with Ethanol (9:1), 10 days): 74.29 µg/mL and 97.99 µg/mL and 73.93 µg/mL
Solubility, single determinations ([2]; HFA 134a, 10 days): 14.84 µg/mL and 10.26 µg/mL and 11.51 µg/mL and 15.77 µg/mL

mass less than 5 μm in diameter ([3]; after fifth milling cycle): approximately 75%
D10 ([3]; milling cycle 0): 3.77 μm
D50 ([3]; milling cycle 0): 50.21 μm
D90 ([3]; milling cycle 0): 445.02 μm
D10 ([3]; milling cycle 1): 2.22 μm
D50 ([3]; milling cycle 1): 7.01 μm
D90 ([3]; milling cycle 1): 20.59 μm
D10 ([3]; milling cycle 3): 1.44 μm
D50 ([3]; milling cycle 3): 3.99 μm
D90 ([3]; milling cycle 3): 9.90 μm
D10 ([3]; milling cycle 5): 1.59 μm
D50 ([3]; milling cycle 5): 3.79 μm
D90 ([3]; milling cycle 5): 8.13 μm
Structure (SMILES): CN1C2CCCC1CC(NC(=O)c1nn(C)c3ccccc13)C2.Cl (stereo not shown) [jet milled granisetron, Granisetron HCl]
